In patent US20220169598A1, “HALOGENATED PHENYLSULFONAMIDE HYDROXAMIC ACID COMPOUNDS, COMPOSITIONS AND USES THEREOF AS SELECTIVE HDAC6 INHIBITORS” (2681603 ONTARIO INC., priority 2019, published 2022):

Assays:
[1] = target: HDAC1 (Homo sapiens, UniProt Q13547); test: in vitro activity-based HDAC assay; type: biochemical; details: human HDAC isoform panel, Table 1
Protocol: (§1) The exemplary compounds of Formula I and structurally related compounds were synthesized to assess their structure-activity relationship. […] The IC50 values for each exemplary compound were used to calculate the selectivity of the exemplary compounds for Formula I to HDAC6. The selectivity of each exemplary compound for HDAC6 was determined from examining the potency of HDAC6 in relation to the highest binding affinity of the other HDAC isoforms tested.

[2] = target: T1, HDAC10 (Homo sapiens, UniProt Q969S8); test: in vitro activity-based HDAC assay; type: biochemical; details: human HDAC isoform panel, Table 1
T1 sequence (Q969S8 1-669): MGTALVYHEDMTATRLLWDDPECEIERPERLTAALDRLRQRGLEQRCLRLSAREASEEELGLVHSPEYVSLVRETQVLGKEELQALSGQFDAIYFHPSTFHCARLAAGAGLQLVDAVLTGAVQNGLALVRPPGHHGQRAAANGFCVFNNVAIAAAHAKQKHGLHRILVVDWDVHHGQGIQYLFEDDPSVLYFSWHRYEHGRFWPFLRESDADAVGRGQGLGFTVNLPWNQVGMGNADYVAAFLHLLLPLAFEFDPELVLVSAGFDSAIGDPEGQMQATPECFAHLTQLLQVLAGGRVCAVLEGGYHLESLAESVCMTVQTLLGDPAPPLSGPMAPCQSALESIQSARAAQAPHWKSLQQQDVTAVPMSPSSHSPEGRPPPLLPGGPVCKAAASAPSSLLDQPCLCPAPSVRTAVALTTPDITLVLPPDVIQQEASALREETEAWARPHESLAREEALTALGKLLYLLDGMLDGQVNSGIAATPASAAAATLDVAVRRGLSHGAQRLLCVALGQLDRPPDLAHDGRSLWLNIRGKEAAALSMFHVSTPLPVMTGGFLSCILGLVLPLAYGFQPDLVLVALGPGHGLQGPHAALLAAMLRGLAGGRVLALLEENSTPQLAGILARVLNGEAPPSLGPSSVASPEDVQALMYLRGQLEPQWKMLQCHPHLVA
Protocol: as §1

[3] = target: HDAC2 (Homo sapiens, UniProt Q92769); test: in vitro activity-based HDAC assay; type: biochemical; details: human HDAC isoform panel, Table 1
Sequence of HDAC2 (Q92769 whole entry, canonical isoform): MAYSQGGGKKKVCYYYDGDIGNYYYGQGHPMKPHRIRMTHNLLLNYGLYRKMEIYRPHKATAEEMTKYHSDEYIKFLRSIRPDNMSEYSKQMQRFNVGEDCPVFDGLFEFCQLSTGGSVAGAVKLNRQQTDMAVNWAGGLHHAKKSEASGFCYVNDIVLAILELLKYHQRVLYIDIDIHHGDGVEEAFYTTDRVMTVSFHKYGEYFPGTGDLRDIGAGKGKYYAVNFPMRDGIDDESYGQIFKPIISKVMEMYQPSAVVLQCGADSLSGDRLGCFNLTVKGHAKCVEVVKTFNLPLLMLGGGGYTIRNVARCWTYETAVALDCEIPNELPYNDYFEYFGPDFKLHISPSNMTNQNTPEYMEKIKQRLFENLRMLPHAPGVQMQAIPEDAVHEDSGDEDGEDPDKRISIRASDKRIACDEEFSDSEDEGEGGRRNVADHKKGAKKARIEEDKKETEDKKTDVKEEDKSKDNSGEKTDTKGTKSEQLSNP
Protocol: as §1

[4] = target: HDAC4 (Homo sapiens, UniProt P56524); test: in vitro activity-based HDAC assay; type: biochemical; details: human HDAC isoform panel, Table 1
Sequence of HDAC4 (P56524 whole entry, canonical isoform): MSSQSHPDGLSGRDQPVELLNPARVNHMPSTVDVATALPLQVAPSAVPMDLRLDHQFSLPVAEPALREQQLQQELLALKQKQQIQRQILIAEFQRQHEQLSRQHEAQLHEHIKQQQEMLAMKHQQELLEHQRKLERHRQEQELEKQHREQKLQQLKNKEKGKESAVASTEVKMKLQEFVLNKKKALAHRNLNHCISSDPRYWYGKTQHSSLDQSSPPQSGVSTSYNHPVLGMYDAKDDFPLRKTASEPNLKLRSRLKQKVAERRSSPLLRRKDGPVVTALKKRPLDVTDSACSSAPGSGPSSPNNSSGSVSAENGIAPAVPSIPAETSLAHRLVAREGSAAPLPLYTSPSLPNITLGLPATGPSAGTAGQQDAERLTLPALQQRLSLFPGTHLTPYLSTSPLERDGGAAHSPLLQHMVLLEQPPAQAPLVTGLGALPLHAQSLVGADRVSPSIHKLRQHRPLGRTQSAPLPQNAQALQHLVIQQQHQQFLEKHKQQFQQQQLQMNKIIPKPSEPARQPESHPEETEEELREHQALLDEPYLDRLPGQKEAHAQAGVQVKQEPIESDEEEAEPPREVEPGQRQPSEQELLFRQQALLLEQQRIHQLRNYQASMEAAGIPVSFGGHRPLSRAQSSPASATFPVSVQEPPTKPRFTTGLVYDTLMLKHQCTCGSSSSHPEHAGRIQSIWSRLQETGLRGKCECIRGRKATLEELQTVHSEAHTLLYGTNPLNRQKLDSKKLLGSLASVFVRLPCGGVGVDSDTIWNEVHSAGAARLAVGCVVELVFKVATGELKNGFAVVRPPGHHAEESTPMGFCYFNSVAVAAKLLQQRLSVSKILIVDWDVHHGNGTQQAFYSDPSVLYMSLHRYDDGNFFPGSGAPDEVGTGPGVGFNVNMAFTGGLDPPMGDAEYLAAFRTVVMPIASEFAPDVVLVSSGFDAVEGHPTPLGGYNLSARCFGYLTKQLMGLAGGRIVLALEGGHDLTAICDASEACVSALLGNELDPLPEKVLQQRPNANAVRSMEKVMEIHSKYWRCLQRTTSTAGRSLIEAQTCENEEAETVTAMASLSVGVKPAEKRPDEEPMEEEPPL
Protocol: as §1

[5] = target: HDAC5 (Homo sapiens, UniProt Q9UQL6); test: in vitro activity-based HDAC assay; type: biochemical; details: human HDAC isoform panel, Table 1
Sequence of HDAC5 (Q9UQL6 whole entry, canonical isoform): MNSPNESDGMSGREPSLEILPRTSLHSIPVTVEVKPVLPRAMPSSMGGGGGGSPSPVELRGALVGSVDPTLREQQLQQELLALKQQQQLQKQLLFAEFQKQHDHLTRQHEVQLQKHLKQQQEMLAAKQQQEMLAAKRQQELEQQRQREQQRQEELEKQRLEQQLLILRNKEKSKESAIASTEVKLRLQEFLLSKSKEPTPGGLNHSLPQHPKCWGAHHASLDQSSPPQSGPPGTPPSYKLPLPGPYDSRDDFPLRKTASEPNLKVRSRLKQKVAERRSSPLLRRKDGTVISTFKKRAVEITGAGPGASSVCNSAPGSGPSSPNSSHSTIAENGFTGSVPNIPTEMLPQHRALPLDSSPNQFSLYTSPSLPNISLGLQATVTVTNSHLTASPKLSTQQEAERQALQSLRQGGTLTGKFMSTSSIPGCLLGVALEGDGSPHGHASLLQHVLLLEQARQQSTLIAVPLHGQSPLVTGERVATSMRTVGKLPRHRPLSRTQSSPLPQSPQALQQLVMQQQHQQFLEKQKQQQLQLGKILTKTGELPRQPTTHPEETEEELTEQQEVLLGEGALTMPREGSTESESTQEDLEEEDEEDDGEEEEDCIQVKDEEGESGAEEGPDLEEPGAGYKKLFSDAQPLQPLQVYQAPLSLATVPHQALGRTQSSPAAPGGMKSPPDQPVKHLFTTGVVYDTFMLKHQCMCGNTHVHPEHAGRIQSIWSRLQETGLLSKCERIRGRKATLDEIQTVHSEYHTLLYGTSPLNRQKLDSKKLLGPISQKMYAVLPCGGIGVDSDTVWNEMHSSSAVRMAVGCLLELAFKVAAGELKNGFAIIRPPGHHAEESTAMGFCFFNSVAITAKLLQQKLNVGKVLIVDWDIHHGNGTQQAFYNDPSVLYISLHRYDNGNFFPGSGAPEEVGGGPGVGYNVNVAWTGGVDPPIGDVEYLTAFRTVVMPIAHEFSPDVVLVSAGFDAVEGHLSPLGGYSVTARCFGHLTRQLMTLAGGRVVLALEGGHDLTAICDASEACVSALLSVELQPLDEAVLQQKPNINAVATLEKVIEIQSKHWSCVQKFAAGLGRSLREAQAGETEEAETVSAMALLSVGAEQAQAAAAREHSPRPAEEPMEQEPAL
Protocol: as §1

[6] = target: T2, HDAC7 (Homo sapiens, UniProt Q8WUI4); test: in vitro activity-based HDAC assay; type: biochemical; details: human HDAC isoform panel, Table 1
T2 sequence (Q8WUI4 1-952): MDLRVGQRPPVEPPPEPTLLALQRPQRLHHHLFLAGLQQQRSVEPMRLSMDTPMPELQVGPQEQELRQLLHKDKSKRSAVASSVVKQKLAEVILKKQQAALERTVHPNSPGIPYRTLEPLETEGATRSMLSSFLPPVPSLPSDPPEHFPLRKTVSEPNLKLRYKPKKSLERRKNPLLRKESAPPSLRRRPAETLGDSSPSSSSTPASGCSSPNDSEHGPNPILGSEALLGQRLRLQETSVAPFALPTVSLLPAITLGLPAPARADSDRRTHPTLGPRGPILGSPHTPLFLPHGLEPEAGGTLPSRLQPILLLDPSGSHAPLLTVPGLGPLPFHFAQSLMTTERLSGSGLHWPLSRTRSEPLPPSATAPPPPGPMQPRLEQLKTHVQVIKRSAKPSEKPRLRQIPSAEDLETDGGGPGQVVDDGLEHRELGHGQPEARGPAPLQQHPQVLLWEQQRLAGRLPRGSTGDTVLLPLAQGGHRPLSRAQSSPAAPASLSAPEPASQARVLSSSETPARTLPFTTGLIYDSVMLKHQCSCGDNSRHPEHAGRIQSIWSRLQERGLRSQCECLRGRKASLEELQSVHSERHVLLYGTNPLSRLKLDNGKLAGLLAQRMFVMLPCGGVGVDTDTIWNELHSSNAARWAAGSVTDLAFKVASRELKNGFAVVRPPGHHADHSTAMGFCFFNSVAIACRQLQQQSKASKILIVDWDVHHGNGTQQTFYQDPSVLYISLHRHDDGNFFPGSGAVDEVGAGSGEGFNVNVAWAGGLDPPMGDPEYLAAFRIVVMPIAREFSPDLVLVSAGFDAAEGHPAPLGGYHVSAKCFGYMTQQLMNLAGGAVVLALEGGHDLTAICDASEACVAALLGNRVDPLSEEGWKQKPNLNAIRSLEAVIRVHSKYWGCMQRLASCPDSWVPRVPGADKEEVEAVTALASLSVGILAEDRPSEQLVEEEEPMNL
Protocol: as §1

[7] = target: HDAC9 (Homo sapiens, UniProt Q9UKV0); test: in vitro activity-based HDAC assay; type: biochemical; details: human HDAC isoform panel, Table 1
Sequence of HDAC9 (Q9UKV0 whole entry, canonical isoform): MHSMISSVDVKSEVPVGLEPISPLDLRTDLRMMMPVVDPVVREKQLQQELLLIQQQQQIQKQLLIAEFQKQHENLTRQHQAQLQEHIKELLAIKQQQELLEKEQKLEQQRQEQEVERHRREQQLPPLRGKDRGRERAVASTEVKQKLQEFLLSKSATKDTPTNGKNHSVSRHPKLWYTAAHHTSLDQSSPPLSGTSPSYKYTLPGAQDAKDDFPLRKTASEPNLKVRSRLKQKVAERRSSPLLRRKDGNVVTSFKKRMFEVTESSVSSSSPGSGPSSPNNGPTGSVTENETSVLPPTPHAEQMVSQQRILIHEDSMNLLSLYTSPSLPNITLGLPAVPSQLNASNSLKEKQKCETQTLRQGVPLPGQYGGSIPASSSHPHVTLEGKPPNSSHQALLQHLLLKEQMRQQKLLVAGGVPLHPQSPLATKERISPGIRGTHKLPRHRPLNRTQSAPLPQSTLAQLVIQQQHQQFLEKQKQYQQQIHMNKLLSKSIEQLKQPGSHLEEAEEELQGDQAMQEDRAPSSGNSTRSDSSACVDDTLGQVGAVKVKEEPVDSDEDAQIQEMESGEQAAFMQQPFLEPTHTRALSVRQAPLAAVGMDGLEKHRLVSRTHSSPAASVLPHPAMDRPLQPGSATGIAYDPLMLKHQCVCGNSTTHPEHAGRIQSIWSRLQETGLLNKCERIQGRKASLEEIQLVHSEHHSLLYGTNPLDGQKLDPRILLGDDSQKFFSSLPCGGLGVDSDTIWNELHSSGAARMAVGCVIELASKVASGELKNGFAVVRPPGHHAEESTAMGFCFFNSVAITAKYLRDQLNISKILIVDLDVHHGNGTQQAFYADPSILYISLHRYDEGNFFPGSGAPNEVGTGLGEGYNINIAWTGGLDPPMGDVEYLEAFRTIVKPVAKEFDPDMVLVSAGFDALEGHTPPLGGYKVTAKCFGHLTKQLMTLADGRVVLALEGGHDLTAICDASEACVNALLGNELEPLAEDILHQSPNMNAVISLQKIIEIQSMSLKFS
Protocol: as §1

[8] = system: MM.1S; test: Cytotoxicity in cell lines; type: cell-based; details: Homo sapiens, MM1.S; Table 4
Protocol: (§2) The cytotoxicity of exemplary compounds of the application was tested in multiple cell lines including MV-4-11, MOLM-13, MCF-7, MRC9, K562 and MM.1S. The therapeutic index was evaluated by determining the toxicity of the exemplary compounds in healthy cell lines including fibroblasts and HUVEC.

[9] = system: MRC9; test: Cytotoxicity in cell lines; type: cell-based; details: Table 4
Protocol: as §2

[10] = system: MV-4-11; test: Cytotoxicity in cell lines; type: cell-based; details: Homo sapiens, MV4-11, Table 4; read-out: IC50 MV-411
Protocol: as §2

[11] = system: MCF-7; test: Cytotoxicity in cell lines; type: cell-based; details: Homo sapiens, MCF7; Table 4
Protocol: as §2

[12] = system: MOLM-13; test: Cytotoxicity in cell lines; type: cell-based; details: Homo sapiens, MOLM-13; Table 4; read-out: IC50 MOLM-13
Protocol: as §2

Sequence of HDAC1 (Q13547 whole entry, canonical isoform): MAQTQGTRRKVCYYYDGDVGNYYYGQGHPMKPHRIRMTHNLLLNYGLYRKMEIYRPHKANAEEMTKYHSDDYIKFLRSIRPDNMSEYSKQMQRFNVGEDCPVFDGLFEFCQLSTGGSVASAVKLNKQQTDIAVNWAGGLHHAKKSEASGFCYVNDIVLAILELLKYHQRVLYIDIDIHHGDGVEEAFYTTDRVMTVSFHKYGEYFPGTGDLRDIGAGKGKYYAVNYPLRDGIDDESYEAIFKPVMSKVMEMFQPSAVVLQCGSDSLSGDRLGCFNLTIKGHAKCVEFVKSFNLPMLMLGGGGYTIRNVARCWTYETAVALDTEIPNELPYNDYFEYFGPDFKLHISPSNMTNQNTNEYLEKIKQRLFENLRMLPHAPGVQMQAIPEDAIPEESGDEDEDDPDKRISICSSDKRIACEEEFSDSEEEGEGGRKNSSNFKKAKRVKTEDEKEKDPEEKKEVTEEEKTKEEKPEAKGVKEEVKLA

IC50 [1] [µM]	IC50 [2] [µM]	IC50 [3] [µM]	IC50 [4] [µM]	IC50 [5] [µM]	IC50 [6] [µM]	IC50 [7] [µM]	SMILES	IC50 [8] [µM]	IC50 [9] [µM]	IC50 [10] [µM]	IC50 [11] [µM]	IC50 [12] [µM]
> 1	> 1	> 1	> 1	> 1	> 1	> 1	CC(C)N(Cc1ccc(C(=O)NO)cc1F)S(=O)(=O)c1cc(F)c(F)c(F)c1F [Compound I-50, 3-fluoro-N-hydroxy-4-(((2,3,4,5-tetrafluoro-N-isopropylphenyl)sulfonamido)methyl)benzamide]	1.2	> 50	1.6	–	–
–	–	–	–	–	–	–	O=C(NO)c1ccc(CN(Cc2cccnc2)S(=O)(=O)c2cc(F)c(F)c(F)c2F)c(C(F)(F)F)c1 [Compound I-31, N-hydroxy-4-((2,3,4,5-tetrafluoro-N-(pyridin-3-ylmethyl)phenylsulfonamido)methyl)-3-(trifluoromethyl)benzamide]	–	–	3.4	5	1.6
